One series addresses T1, hM2 (Homo sapiens, UniProt P08172).
T1 sequence (P08172 1-466): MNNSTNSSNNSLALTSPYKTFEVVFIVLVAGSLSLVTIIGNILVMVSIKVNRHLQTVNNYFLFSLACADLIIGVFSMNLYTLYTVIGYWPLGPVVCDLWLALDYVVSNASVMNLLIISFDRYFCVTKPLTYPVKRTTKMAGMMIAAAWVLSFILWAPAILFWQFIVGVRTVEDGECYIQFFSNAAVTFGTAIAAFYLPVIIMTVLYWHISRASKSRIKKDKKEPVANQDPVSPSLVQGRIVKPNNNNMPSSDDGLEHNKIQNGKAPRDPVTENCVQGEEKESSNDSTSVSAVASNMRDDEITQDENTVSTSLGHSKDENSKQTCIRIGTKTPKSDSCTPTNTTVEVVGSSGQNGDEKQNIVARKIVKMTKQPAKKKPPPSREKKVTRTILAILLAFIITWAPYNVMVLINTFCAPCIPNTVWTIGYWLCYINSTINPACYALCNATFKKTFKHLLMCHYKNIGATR
The experiment in a line: Subtype selectivity, hM2. The note with it: printed as hM2-4. In kind it is cell-based.

A further series deals with hM3 (Homo sapiens, UniProt P20309). The experiment in a line: Subtype selectivity, hM3. The conditions noted are these: printed as hM2-4. The series is classed as cell-based.
In the next series the target is T2, hM4 (Homo sapiens, UniProt P08173).
T2 sequence (P08173 1-479): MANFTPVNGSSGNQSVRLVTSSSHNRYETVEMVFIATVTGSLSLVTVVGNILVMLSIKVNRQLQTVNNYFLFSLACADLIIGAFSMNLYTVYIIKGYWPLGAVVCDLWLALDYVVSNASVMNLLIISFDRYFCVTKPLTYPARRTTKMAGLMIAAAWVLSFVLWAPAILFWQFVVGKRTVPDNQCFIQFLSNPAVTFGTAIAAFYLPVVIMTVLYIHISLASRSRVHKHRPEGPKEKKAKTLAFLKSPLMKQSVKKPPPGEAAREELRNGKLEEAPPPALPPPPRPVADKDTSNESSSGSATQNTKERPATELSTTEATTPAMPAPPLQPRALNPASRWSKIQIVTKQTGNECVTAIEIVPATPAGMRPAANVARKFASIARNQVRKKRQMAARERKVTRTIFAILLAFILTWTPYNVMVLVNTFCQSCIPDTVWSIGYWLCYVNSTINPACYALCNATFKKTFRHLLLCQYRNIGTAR
The experiment in a line: Subtype selectivity, hM4. In kind it is cell-based.

Series [1] in a line: In vitro clearance. The conditions noted are these: for Predicted CLhep: human (h). In kind it is in vitro ADME, human.
The next series has as its target T3, hM5 (Homo sapiens, UniProt P08912).
T3 sequence (P08912 1-532): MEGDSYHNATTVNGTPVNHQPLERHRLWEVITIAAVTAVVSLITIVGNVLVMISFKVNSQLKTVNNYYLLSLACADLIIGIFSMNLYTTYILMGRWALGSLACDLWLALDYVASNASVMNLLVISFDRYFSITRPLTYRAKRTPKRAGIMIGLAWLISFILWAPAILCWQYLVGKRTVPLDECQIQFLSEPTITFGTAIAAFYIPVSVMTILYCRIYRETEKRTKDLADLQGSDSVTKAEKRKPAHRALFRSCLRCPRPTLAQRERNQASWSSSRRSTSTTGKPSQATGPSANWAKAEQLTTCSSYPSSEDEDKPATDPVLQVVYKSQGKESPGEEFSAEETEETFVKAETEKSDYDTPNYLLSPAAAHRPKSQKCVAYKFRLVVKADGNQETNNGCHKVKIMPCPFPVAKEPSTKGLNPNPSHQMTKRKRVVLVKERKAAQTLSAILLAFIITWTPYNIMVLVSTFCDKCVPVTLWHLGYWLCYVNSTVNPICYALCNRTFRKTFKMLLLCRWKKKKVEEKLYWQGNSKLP
The experiment in a line: Calcium mobilization assay with hM5-CHO cells, EC80 acetylcholine. The series is classed as cell-based. The note with it: for hM5 IC50: antagonist.

Series [2] can be described thus: In vitro clearance. The series is classed as in vitro ADME, rat. The note with it: for Predicted CLhep: rat (r).

Marks after values point to notes of the source that are not given here.

Sequence of hM3 (P20309 whole entry): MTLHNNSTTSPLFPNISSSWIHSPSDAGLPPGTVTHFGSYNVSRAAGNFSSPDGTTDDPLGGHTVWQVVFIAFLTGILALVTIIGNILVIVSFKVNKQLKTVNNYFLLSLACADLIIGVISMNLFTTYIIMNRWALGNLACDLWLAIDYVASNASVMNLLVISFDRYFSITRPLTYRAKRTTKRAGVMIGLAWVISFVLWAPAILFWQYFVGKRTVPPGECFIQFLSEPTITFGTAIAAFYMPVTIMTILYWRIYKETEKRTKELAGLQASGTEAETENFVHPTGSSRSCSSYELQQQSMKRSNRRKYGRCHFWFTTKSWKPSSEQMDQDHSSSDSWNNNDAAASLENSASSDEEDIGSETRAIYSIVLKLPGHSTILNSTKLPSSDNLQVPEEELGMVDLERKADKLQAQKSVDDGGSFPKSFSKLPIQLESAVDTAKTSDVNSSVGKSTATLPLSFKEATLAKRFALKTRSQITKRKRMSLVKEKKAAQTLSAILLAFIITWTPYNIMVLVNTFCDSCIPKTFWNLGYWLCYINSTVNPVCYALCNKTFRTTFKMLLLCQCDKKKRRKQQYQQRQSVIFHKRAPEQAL

As for `O=C(Nc1ccc2scnc2c1)C1CCN(S(=O)(=O)c2ccc(Cl)s2)CC1` [compound 4], on hM2, the “hM2 IC50” value was “inactive”. Further, the “hM3 IC50” value on hM3 was “inactive”. In addition, the “hM4 IC50” value at hM4 is “inactive”.

For the compound `Cc1nc2cc(NC(=O)C3CCN(S(=O)(=O)c4ccc5c(c4)CCO5)CC3)ccc2s1` [compound 20], the “Predicted CLhep” value is 16 mL/min/kg in “In vitro clearance [1]” and 60 mL/min/kg in “In vitro clearance [2]”. At hM5, the “hM5 ACh Min” value is given as 19^c %.

Turning to `O=C(Nc1ccc2nncn2c1)C1CCN(S(=O)(=O)c2ccc3c(c2)CCO3)CC1` [28c], at hM5, the “hM5 ACh Min” value was “inactive” and the “hM5 IC50” value was “inactive”.

On to `C[C@@H]1C[C@@H](C(=O)Nc2ccc3scnc3c2)CCN1S(=O)(=O)c1ccc2c(c1)CCO2` (racemic) [(rac)-25], for which the “Predicted CLhep” value in the series “In vitro clearance [1]” was 18 mL/min/kg; in the series “In vitro clearance [2]” it was 62 mL/min/kg.

Consider `O=C(Nc1ccc2snnc2c1)C1CCN(S(=O)(=O)c2ccc3c(c2)CCO3)CC1` [28g], for which the “Predicted CLhep” value in “In vitro clearance [1]” is listed as 18 mL/min/kg; in “In vitro clearance [2]” it was 64 mL/min/kg.

With `C[C@@H]1CN(S(=O)(=O)c2ccc3c(c2)CCO3)CC[C@@H]1C(=O)Nc1ccc2scnc2c1` (racemic) [(rac)-22], the figures for the “Predicted CLhep” value in “In vitro clearance [1]” and in the series “In vitro clearance [2]” were 19 mL/min/kg and 62 mL/min/kg, respectively. Besides, at hM5, the “hM5 ACh Min” value is recorded as 3^c %.

As for `Cc1ccc(S(=O)(=O)N2CCC(C(=O)Nc3ccc4scnc4c3)CC2)cn1` [29d], the results for the “Predicted CLhep” value in the series “In vitro clearance [1]” and in the series “In vitro clearance [2]” were 4 mL/min/kg and 27 mL/min/kg, respectively.

Turning to `Cc1nn(C)cc1S(=O)(=O)N1CC[C@H](C(=O)Nc2ccc3scnc3c2)[C@@H](F)C1` (racemic) [(rac)-30a], the “Predicted CLhep” value in the series “In vitro clearance [1]” is recorded as 5 mL/min/kg; in the series “In vitro clearance [2]”, 55 mL/min/kg.

In the case of `CC1COc2ccc(S(=O)(=O)N3CCC(C(=O)Nc4ccc5scnc5c4)CC3)cc21` (racemic) [(rac)-26], the figures for the “Predicted CLhep” value in “In vitro clearance [1]” and in “In vitro clearance [2]” were 19 mL/min/kg and 66 mL/min/kg, respectively.

As to `O=C(Nc1ccc2nccnc2c1)C1CCN(S(=O)(=O)c2ccc3c(c2)CCO3)CC1` [28e], at hM5, the “hM5 ACh Min” value is “inactive” and the “hM5 IC50” value was “inactive”.

With `O=C(Nc1ccc2ncnn2c1)C1CCN(S(=O)(=O)c2ccc3c(c2)CCO3)CC1` [28b], on hM5, the “hM5 ACh Min” value was “inactive” and the “hM5 IC50” value was “inactive”.

Regarding `Cn1ccnc1NC(=O)C1CCN(S(=O)(=O)c2ccc3c(c2)CCO3)CC1` [compound 6], the “hM5 IC50” value on hM5 was “inactive”.

In the case of `Cn1ncc(S(=O)(=O)N2CC[C@H](C(=O)Nc3ccc4scnc4c3)[C@@H](F)C2)c1Cl` (racemic) [(rac)-30b], the “Predicted CLhep” value in “In vitro clearance [1]” is on record as 4 mL/min/kg; in the series “In vitro clearance [2]”, 29 mL/min/kg.

In the case of `O=C(Nc1ccc2occc2c1)C1CCN(S(=O)(=O)c2ccc3c(c2)CCO3)CC1` [28a], at hM5, the “hM5 ACh Min” value was “inactive” and the “hM5 IC50” value was “inactive”.

In the case of `O=C(Nc1ccc2scnc2c1)C1CCN(S(=O)(=O)c2ccc3ncccc3c2)CC1` [29b], the “Predicted CLhep” value is 10 mL/min/kg in “In vitro clearance [1]” and 53 mL/min/kg in “In vitro clearance [2]”.

In the case of `C[C@H]1CN(S(=O)(=O)c2ccc3c(c2)CCO3)CC[C@@H]1C(=O)Nc1ccc2scnc2c1` (racemic) [(rac)-23], the “Predicted CLhep” value in the series “In vitro clearance [1]” is listed as 17 mL/min/kg; in “In vitro clearance [2]”, 61 mL/min/kg. For the same compound, the “hM5 ACh Min” value on hM5 is 3^c %.

As for `Cc1ncc(S(=O)(=O)N2CC[C@H](C(=O)Nc3ccc4scnc4c3)[C@@H](F)C2)s1` (racemic) [(rac)-30c], the “Predicted CLhep” value in “In vitro clearance [1]” is listed as 5 mL/min/kg; in “In vitro clearance [2]” it was 37 mL/min/kg.

As to `O=C(Nc1ccc2cccnc2c1)C1CCN(S(=O)(=O)c2ccc3c(c2)CCO3)CC1` [28f], the “Predicted CLhep” value is 17 mL/min/kg in “In vitro clearance [1]” and 64 mL/min/kg in “In vitro clearance [2]”.

`Cc1nn(C)cc1S(=O)(=O)N1CCC(C(=O)Nc2ccc3scnc3c2)CC1` [29f]: in “In vitro clearance [2]”, the “Predicted CLhep” value is reported as 28 mL/min/kg.

For the compound `O=C(Nc1ccc2scnc2c1)C1CCN(S(=O)(=O)c2cccnc2)CC1` [29e], the “Predicted CLhep” value was 10 mL/min/kg in the series “In vitro clearance [1]” and 52 mL/min/kg in “In vitro clearance [2]”. For the same compound, the “hM5 ACh Min” value on hM5 is given as 2^b %.

With `O=C(Nc1cnc2sccc2c1)C1CCN(S(=O)(=O)c2ccc3c(c2)CCO3)CC1` [28d], on hM5, the “hM5 ACh Min” value is “inactive” and the “hM5 IC50” value is “inactive”.

As for `O=C(Nc1ccc2scnc2c1)C1CCN(S(=O)(=O)c2ccc3ncsc3c2)CC1` [29a], the CLint scaled in “In vitro clearance [1]” (human) is 13 mL/min/kg; in the series “In vitro clearance [2]” (rat), 38 mL/min/kg. The results for the “Predicted CLhep” value in “In vitro clearance [1]” and in the series “In vitro clearance [2]” were 13 mL/min/kg and 38 mL/min/kg, respectively.

Turning to `O=C(Nc1ccc2scnc2c1)C1CCN(S(=O)(=O)c2ccc(Cl)nc2)CC1` [29c], the “Predicted CLhep” value is reported as 11 mL/min/kg in the series “In vitro clearance [1]” and 33 mL/min/kg in “In vitro clearance [2]”. Besides, at hM5, the “hM5 ACh Min” value is 3^b %.

Regarding `C[C@@H]1C[C@H](C(=O)Nc2ccc3scnc3c2)CCN1S(=O)(=O)c1ccc2c(c1)CCO2` (racemic) [(rac)-24], the “Predicted CLhep” value was 19 mL/min/kg in “In vitro clearance [1]” and 62 mL/min/kg in “In vitro clearance [2]”. Also, the “hM5 ACh Min” value at hM5 is 2^c %.

The values are drawn from article PMC10939060 (Bioorganic & medicinal chemistry letters, 2022).
